Measured values as given in US5698547A, “Cephalosporin antibiotics” (Microcide Pharmaceuticals, Inc., priority 1995, dated 1997).
In brackets after ≈: the same amount, converted by molar mass. Structures can show the parent of a compound that is named as a salt.

Key:
[1] = system: S. aureus ATCC 29213; assay: MIC by agar dilution, S. aureus ATCC 29213; type: cell-based; settings: Staphylococcus aureus, ATCC29213; agar dilution; S. aureus ATCC 29213; read-out: MIC
Protocol: (§1) The compounds of the invention were evaluated against several β-lactamresistant bacteria strains by determining the minimum inhibitory concentration (MIC, μg/ml) of each compound with respect to each strain. The MIC, the lowest concentration of antibiotic which inhibits growth of the test organism, was determined by the agar dilution method.
(§2) To determine the MIC for bacterial isolates, the test compound was incorporated in a series of two-fold dilutions into liquified Mueller-Hinton agar. Upon solidification, a number of different bacterial strains were spot inoculated with a replicating device onto the agar surface. […] The procedures used in these studies have been standardized by the National Committee for Clinical Laboratory Standards (NCCLS), as per the NCCLS publication entitled METHODS FOR DILUTION ANTIMICROBIAL SUSCEPTIBILITY TESTS (1991), which is incorporated herein by reference.
(§3) Aliquots of antimicrobial agents were prepared in phosphate buffered saline (PBS) at pH 7.2. Tween 20 or DMSO was used as a solubilizing vehicle as needed. Standard methods of vortexing, sonicating and gentle heat were used to facilitate solubilizing the test agent. Typically, the concentration of the stock solution was 10× that of the highest drug concentration tested. A 1.28 mg/mL stock solution was used with a subsequent highest working concentration of 128 μg/mL. Serial two-fold dilutions were done through ≤0.25 μg/mL. Each drug level was tested in duplicate. Two-fold drug dilutions were done in sterile 50 mL tubes with a final drug volume of 5 mL. Upon the addition of 45 mL of molten agar, a 10-fold dilution resulted. Two, 25 mL. plates were then poured into 15×150 mm square Petri plates with grids and allowed to harden.
(§4) A control plate with a reference drug, either cefotaxime, vancomycin or imipenem, was used as the positive growth control. Stock concentrations of reference antibiotics were prepared and frozen at -80° C. Upon preparation, the control plates were sealed and stored in the refrigerator for up to 1 week prior to use; however, imipenem control plates had to be prepared just prior to use. All test plates were used within 24 hours of preparation.
(§5) Satisfactory results were obtained where the inoculum contained about 10^4 colony forming units (cfu) ±0.5 logs. Starting with pure cultures of the test isolates on agar plates, a few isolated colonies were transferred to a tube of nutrient broth and allowed to grow 4-6 hours at 35°-36° C. to reach log-phase growth. Dropwise addition of the broth culture to PBS was done to match a 0.5 McFarland turbidity standard equal to 10^8 cfu/mL. This was further diluted ten-fold in PBS to reach a working inoculum concentration of 10^7 cfu/mL. When 1 μL of the working inoculum was applied to the agar surface a concentration of about 10^4 cfu per spot was obtained.
(§6) Disposable sterile 1 μL loops were used to inoculate test plates, with each isolate in a designated grid on the agar plate. An alternate method of inoculation involved the use of a replica plater, a device with 48 steel pins allowing the simultaneous inoculation of multiple isolates. After the spots had dried, the plates were incubated at 35°-36° C. for 16-20 hours. Endpoints were assessed as the minimum inhibitory concentration (MIC) of antimicrobial agent.

[2] = system: S. aureus Col (Meth^R) (lac^-); assay: MIC by agar dilution, S. aureus Col (Meth^R) (lac^-); type: cell-based; settings: for MIC: Staphylococcus aureus, agar dilution, S. aureus Col (Meth^R) (lac^-), read-out: MIC
Outline: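 Agar dilution per NCCLS (1991): two-fold dilutions from 128 μg/mL down to ≤0.25 μg/mL in Mueller-Hinton agar, each level in duplicate. Spots of about 10^4 cfu of log-phase culture; 16-20 h at 35°-36° C. MIC in μg/ml is the lowest concentration inhibiting growth.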

[3] = system: S. aureus 76 (Meth^R) (lac^+); assay: MIC by agar dilution, S. aureus 76 (Meth^R) (lac^+); type: cell-based; settings: Staphylococcus aureus, read-out: MIC
Protocol: as §1, §2, §3, §4, §5, §6

[4] = system: S. aureus Col8A (Meth^S) (lac^-); assay: MIC by agar dilution, S. aureus Col8A (Meth^S) (lac^-); type: cell-based; settings: for MIC: Staphylococcus aureus, agar dilution, S. aureus Col8A (Meth^S) (lac^-), read-out: MIC
Protocol: as §1, §2, §3, §4, §5, §6
The novel agents of this invention are notable for their enhanced activity against S. aureus Col and Enterococci (E. faecium and E. faecalis). The S. aureus Col strain is a high-level PBP2a producer, whereas S. aureus Col 8A, its isogenic partner, lacks PBP2a. […] Thus, the compounds of the present invention are effective against PBP2a-producing bacteria.

[5] = system: S. haemolyticus (Meth^R); assay: MIC by agar dilution, S. haemolyticus (Meth^R); type: cell-based; settings: Staphylococcus haemolyticus, read-out: MIC
Protocol: as §1, §2, §3, §4, §5, §6

[6] = system: E. faecium ATCC 35667; assay: MIC by agar dilution, E. faecium ATCC 35667; type: cell-based; settings: Enterococcus faecium, ATCC35667, read-out: MIC
Protocol: as §1, §2, §3, §4, §5, §6

[7] = system: E. faecalis ATCC 29212; assay: MIC by agar dilution, E. faecalis ATCC 29212; type: cell-based; settings: Enterococcus faecalis, ATCC29212, read-out: MIC
Protocol: as §1, §2, §3, §4, §5, §6

[8] = system: E. coli ATCC 25922; assay: MIC by agar dilution, E. coli ATCC 25922; type: cell-based; settings: Escherichia coli, ATCC25922, read-out: MIC
Protocol: as §1, §2, §3, §4, §5, §6

[9] = system: P. aeruginosa ATCC 27853; assay: MIC by agar dilution, P. aeruginosa ATCC 27853; type: cell-based; settings: Pseudomonas aeruginosa, ATCC27853, read-out: MIC
Protocol: as §1, §2, §3, §4, §5, §6

[10] = system: methicillin-susceptible S. aureus strain ATCC 13709; assay: murine model for lethal bacteremic peritonitis; type: in vivo, female Swiss-Webster mice; settings: 72 h, subcutaneous; for ED50: Staphylococcus aureus, ATCC13709, sc, two equal doses, S. aureus ATCC 13709 IP challenge, read-out: ED50
Outline: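 Female Swiss-Webster mice challenged IP with an LD100 titer of bacteria in 7% hog gastric mucin; groups of 10 treated SC with twofold drug increments (0.01–512 mg/kg) as two equal doses at challenge and 2 h later. Survival followed for 72 h; PD50 (total mg/kg) calculated by probit method.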

[11] = system: Enterococci (E. faecium and E. faecalis); assay: In vitro antibacterial evaluation, Enterococci; type: cell-based; settings: in words
Protocol: as §1, §2, §3
A control plate with a reference drug, either cefotaxime, vancomycin or imipenem, was used as the positive growth control. […]
Disposable sterile 1 μL loops were used to inoculate test plates, with each isolate in a designated grid on the agar plate. […] Endpoints were assessed as the minimum inhibitory concentration (MIC) of antimicrobial agent.

Structure (SMILES) | MIC [1] [µg/mL] | MIC [2] [µg/mL] | MIC [3] [µg/mL] | MIC [4] [µg/mL] | MIC [5] [µg/mL] | MIC [6] [µg/mL] | MIC [7] [µg/mL] | MIC [8] [µg/mL] | MIC [9] [µg/mL] | ED50 [10] [mg/kg] | Mortality ([10]; dose 0.1562 mg/kg) | Mortality ([10]; dose 0.3125 mg/kg) | Mortality ([10]; dose 0.625 mg/kg) | Mortality ([10]; dose 1.25 mg/kg) | Mortality ([10]; dose 2.5 mg/kg) | activity against S. aureus Col ([2]; in words, PBP2a producer) | activity against S. aureus Col 8A ([4]; in words, lacks PBP2a) | activity against Enterococci [11]
N=C(N)SCc1ccc(SC2=C(C(=O)O)N3C(=O)[C@@H](NC(=O)/C(=N\O)c4csc(N)n4)[C@H]3SC2)c(CSC(=N)N)c1 [Cmpd 139, (7R)-7-[(Z)-2-(Aminothiazol-4-yl)-2-(hydroxyimino)acetamido]-3-[2,4-(bis)isothiouroniummethylphenylthio]-3-cephem-4-carboxylate, trifluoroacetic acid salt] | 0.25 | 4 | 4 | 0.25 | 4 | 0.5 | 0.125 | 1 | > 32 | 0.28 | 4/10 | 8/10 | 4/10 | 0/10 | 1/10 | – | – | –
N=C(N)NCCSCC(=O)N[C@@H]1C(=O)N2C(C(=O)O)=C(Sc3ccc(CSC(=N)N)cc3CSC(=N)N)CS[C@H]12 [Cmpd 141, (7R)-7-[((2-guanidinoethylthio)acetyl)amino]-3-[2,4-(bis)isothiouroniummethylphenylthio]-3-cephem-4-carboxylate, trifluoroacetic acid salt] | 0.25 | 2 | 8 | 0.25 | 8 | 0.5 | 1 | 4 | > 32 | < 0.156 | 3/10 | 3/10 | 2/10 | 1/10 | 1/10 | – | – | –
O=C(Cc1ccccc1)N[C@@H]1C(=O)N2C(C(=O)O)=C(Sc3ccccc3-c3ccccc3)CS[C@H]12 [Cmpd 9, (7R)-7-[(Phenylacetyl)amino]-3-(2-biphenylthio)-3-cephem-4-carboxylic acid] | – | 4 (≈ 7.96 µM) | – | – | – | – | – | – | – | – | – | – | – | – | – | broad activity | broad activity | broad activity
CSCC(=O)N[C@@H]1C(=O)N2C(C(=O)O)=C(Sc3ccc(CSC(=N)N)cc3CSC(=N)N)CS[C@H]12 [Cmpd 140, (7R)-7-[(methylthioacetyl)amino]-3-[2,4-(bis)isothiouroniummethylphenylthio]-3-cephem-4-carboxylate, trifluoroacetic acid salt] | 0.125 | 2 | 8 | ≤ 0.06 | 8 | 1 | 1 | > 32 | > 32 | < 0.156 | 0/10 | 1/10 | 2/10 | 0/10 | 0/10 | – | – | –
